Legend:
[1] = tested on: MMP-1 production in SW1353 human chondrosarcoma cells; assay: glucocorticoid inhibition of IL-1 induced MMP-1 production in human chondrosarcoma cells; assay type: cell-based; conditions: 20 ng/ml IL-1 beta, 72 hours after IL-1 addition, ELISA, read-out: IC50, inhibition of MMP1 expression
Description: (§1) This assay, the glucocorticoid inhibition of IL-1 (Interleukin-1) induced MMP-1 (Matrix Metalloproteinase-1) and IL-8 (Interleukin-8) production in human chondrosarcoma cells, is conducted as follows: SW1353 human chondrosarcoma cells (obtained from ATCC) from passage 12 through passage 19 are used in a 96 well format assay. Cells are plated at confluence into 96 well plates in DMEM (Dulbecco's Modified Eagle Medium) with 10% fetal bovine serum and incubated at 37° C., 5% CO2. After 24 hours, serum containing media is removed and replaced with 200 ul/well DMEM containing 1 mg/L insulin, 2 g/L lactalbumin hydrosylate, and 0.5 mg/L ascorbic acid and returned to incubation at 37° C., 5% CO2. […] IL-8 production is assessed using the Quantikine human IL-8 ELISA kit from R & D Systems (D8050) on samples diluted 60-fold in RD5P Calibrator Diluent, following the manufacturer's protocol. The percent of the average IL-1 control is determined for the average of each of the triplicate samples following subtraction of the average signal from untreated cells. IC50's are determined from log linear plots of the percent of control versus the concentration of inhibitor. […] MMP-1 production is assessed via the Bio-Trak MMP-1 ELISA kit from Amersham (RPN2610) on 100 ul of neat sample following the manufacturer's protocol. […]

[2] = tested on: IL-8 production in SW1353 human chondrosarcoma cells; assay: glucocorticoid inhibition of IL-1 induced IL-8 production in human chondrosarcoma cells; assay type: cell-based; conditions: 20 ng/ml IL-1 beta, 24 hours after IL-1 addition, ELISA, read-out: IC50, inhibition of IL-8 expression
Description: as §1

Structure (SMILES): C[C@@H]1C[C@H]2[C@@H]3CCC4=CC(=O)C=C[C@]4(C)[C@@]3(F)[C@@H](O)C[C@]2(C)[C@@]1(O)C(=O)CO [Dexamethasone, (11β, 16α)-9-fluoro-11,17,21-trihydroxy-16-methylpregna-1,4-diene-3,20-dione]
- IC50 [1]: 5 nM
- IC50 [2]: 5 nM
